pIC50: −log10 of the molar value.

Experiment [1] relates to NF-κB pathway. Description: TNF-α assay (THP-1 cells differentiated to macrophages with IFN-γ, NF-κB pathway activated with LPS; ELISA). Conditions: Homo sapiens, THP-1, THP-1 macrophages, compound 30 min, 50 ng/mL LPS 3 hours. In kind it is cell-based, Human. In outline:
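TNF-α release measured by ELISA after 3 h stimulation with 50 ng/mL LPS, following 30 min compound pretreatment (37 °C, no FBS). Cells were THP-1 macrophages primed with IFN-γ 25 ng/mL for 24 h. IC50 derived by logistic curve fit.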

The target of experiment [2] is T1, NLRP3 inflammasome (Homo sapiens, UniProt Q96P20).
T1 construct: IL-1beta HTRF
Description: IL-1β TR-FRET assay (THP-1 cells differentiated to macrophages with IFN-γ, LPS primed, ATP activated; HTRF). As to conditions: THP-1 macrophages, 50 ng/mL LPS priming, compound 30 min, 20 mM ATP 2 hours. The class given is cell-based. Put shortly: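 IL-1β release was read by HTRF after 16–24 h antibody incubation at room temperature, using supernatants from THP-1-derived macrophages (IFN-γ 25 ng/mL, LPS 50 ng/mL priming) given compound 30 min and then 20 mM ATP for 2 h. % inhibition versus concentration was fitted logistically for IC50.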

T1 sequence (Q96P20 whole entry): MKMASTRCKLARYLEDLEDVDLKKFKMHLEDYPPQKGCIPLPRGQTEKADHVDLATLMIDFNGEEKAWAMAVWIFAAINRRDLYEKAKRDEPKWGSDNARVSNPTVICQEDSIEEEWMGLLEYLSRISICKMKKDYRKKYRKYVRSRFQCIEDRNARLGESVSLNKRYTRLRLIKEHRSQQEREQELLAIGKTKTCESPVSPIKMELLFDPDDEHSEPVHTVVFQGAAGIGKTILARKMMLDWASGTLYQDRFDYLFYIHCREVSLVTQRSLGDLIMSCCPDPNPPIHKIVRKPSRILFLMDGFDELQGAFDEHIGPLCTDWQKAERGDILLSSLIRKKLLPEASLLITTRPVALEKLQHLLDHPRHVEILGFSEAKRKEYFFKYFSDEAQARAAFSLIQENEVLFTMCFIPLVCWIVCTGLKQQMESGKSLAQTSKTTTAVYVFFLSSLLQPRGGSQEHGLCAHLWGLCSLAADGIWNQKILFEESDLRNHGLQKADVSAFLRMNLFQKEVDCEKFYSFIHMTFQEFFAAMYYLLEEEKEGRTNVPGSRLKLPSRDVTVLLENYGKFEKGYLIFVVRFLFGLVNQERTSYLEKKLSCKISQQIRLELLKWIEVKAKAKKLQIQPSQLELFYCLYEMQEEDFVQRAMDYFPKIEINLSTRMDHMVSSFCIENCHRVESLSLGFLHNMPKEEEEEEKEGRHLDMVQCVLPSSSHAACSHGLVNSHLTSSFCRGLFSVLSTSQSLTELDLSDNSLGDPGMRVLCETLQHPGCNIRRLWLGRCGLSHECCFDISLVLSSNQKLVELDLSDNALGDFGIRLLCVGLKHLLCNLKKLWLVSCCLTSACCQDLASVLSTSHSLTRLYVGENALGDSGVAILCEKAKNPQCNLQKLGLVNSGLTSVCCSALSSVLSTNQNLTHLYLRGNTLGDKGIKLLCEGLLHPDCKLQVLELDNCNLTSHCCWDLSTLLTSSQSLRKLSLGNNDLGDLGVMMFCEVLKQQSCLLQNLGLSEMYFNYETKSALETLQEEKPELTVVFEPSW

For `Cc1cc(C)c(-n2cc3sc(N[C@H]4CCOC4)nc3n2)c(O)c1` [Example 158, 3,5-dimethyl-2-(5-{[(3S)-oxolan-3-yl]amino}-2H-pyrazolo[3,4-d][1,3]thiazol-2-yl)phenol], the pIC50 is < 4.52 in experiment [1] and 6.18 in experiment [2].

As to `Cc1cc(C)c(-n2cc3sc(NC4COCC4O)nc3n2)c(O)c1` (stereo not drawn) [Example 159, 4-{[2-(2-hydroxy-4,6-dimethylphenyl)-2H-pyrazolo[3,4-d][1,3]thiazol-5-yl]amino}oxolan-3-ol], the pIC50 is < 4.52 in experiment [1] and 6.59 in experiment [2].

For the molecule `Cc1cc(C)c(-n2cc3sc(N[C@H]4CN(C)CC4(F)F)nc3n2)c(O)c1` [Example 160, 2-(5-{[(3S)-4,4-difluoro-1-methylpyrrolidin-3-yl]amino}-2H-pyrazolo[3,4-d][1,3]thiazol-2-yl)-3,5-dimethylphenol], the pIC50 in experiment [1] is < 4.52; in experiment [2], 5.89.

In the case of `Cc1cc(C)c(-n2cc3sc(NCC4(O)COC4)nc3n2)c(O)c1` [Example 161, 3-({[2-(2-hydroxy-4,6-dimethylphenyl)-2H-pyrazolo [3,4-d][1,3]thiazol-5-yl]amino}methyl)oxetan-3-ol], the pIC50 is < 4.52 in experiment [1] and 4.80 in experiment [2].

`Cc1cc(C)c(-n2cc3sc(N[C@@H]4CCCC[C@H]4O)nc3n2)c(O)c1` [Example 162, 2-(5-{[(1R,2R)-2-hydroxycyclohexyl]amino}-2H-pyrazolo[3,4-d][1,3]thiazol-2-yl)-3,5-dimethyl-phenol]: the negative-log IC50 (pIC50) in experiment [1] is < 4.52; in experiment [2], 6.35.

With `Cc1cc(C)c(-n2cc3sc(NCC(O)C(F)(F)F)nc3n2)c(O)c1` (stereo not drawn) [Example 163, 3,5-dimethyl-2-{5-[(3,3,3-trifluoro-2-hydroxypropyl)amino]-2H-pyrazolo[3,4-d][1,3]thiazol-2-yl}phenol], the values for the pIC50 in experiment [1] and in experiment [2] were < 4.52 and 6.17, respectively.

As to `Cc1cc(C)c(-n2cc3sc(NCC(O)c4ccccn4)nc3n2)c(O)c1` (stereo not drawn) [Example 164, 2-(5-{[2-hydroxy-2-(pyridin-2-yl)ethyl]amino}-2H-pyrazolo[3,4-d][1,3]thiazol-2-yl)-3,5-dimethylphenol], the pIC50 in experiment [1] was < 4.52; in experiment [2], 6.00.

As for `Cc1cc(C)c(-n2cc3sc(N[C@@H]4COCC[C@H]4O)nc3n2)c(O)c1` [Example 165, 1,5-anhydro-2,4-dideoxy-2-{[2-(2-hydroxy-4,6-dimethylphenyl)-2H-pyrazolo[3,4-d][1,3]thiazol-5-yl]amino}-D-threo-pentitol], the negative-log IC50 (pIC50) in experiment [1] is < 4.52; in experiment [2], 5.74.

For the molecule `COCC(O)CNc1nc2nn(-c3c(C)cc(C)cc3O)cc2s1` (stereo not drawn) [Example 166, 2-{5-[(2-hydroxy-3-methoxypropyl)amino]-2H-pyrazolo[3,4-d][1,3]thiazol-2-yl}-3,5-dimethylphenol], the pIC50 was < 4.52 in experiment [1] and 6.12 in experiment [2].

With `Cc1cc(C)c(-n2cc3sc(N[C@@H]4CCOC[C@H]4O)nc3n2)c(O)c1` [Example 167, 1,5-anhydro-2,3-dideoxy-3-{[2-(2-hydroxy-4,6-dimethylphenyl)-2H-pyrazolo[3,4-d][1,3]thiazol-5-yl]amino}-D-threo-pentitol], the pIC50 in experiment [1] is < 4.52; in experiment [2] it was 6.46.

For the molecule `Cc1cc(C)c(-n2cc3sc(NC(CO)CO)nc3n2)c(O)c1` [Example 168, 2-{[2-(2-hydroxy-4,6-dimethylphenyl)-2H-pyrazolo[3,4-d][1,3]thiazol-yl]amino}propane-1,3-diol], the pIC50 was < 4.52 in experiment [1] and 6.43 in experiment [2].

In the case of `Cc1cc(C)c(-n2cc3sc(NC45CC(O)(C4)C5)nc3n2)c(O)c1` [Example 169, 3-{[2-(2-hydroxy-4,6-dimethylphenyl)-2H-pyrazolo[3,4-d][1,3]thiazol-5-yl]amino} bicyclo[1.1.1]pentan-1-ol], the negative-log IC50 (pIC50) in experiment [1] was < 4.52; in experiment [2], 6.37.

The record behind these values is patent publication US20260365671A1, “HETEROCYCLIC COMPOUND” (Takeda Pharmaceutical Company Limited, priority 2022, published 2026).
